Earlier results as cited in EP0279778B1, “New strain belonging to genus Thermus, new beta-galactosidase and process for producing same” (Research Development Corporation of Japan, priority 1987, dated 1988).

Experiments:
[1] = system: Thermus strain 4-1A β-galactosidase (Enzyme of Precedent 3); settings: 56mM
[2] = system: Bacillus stearothermophilus β-galactosidase (Enzyme of Precedent 5); settings: 10mM

SMILES | Inhibition by reaction product [1] [%] | Inhibition by reaction product [2] [%]
OC[C@H]1OC(O)[C@H](O)[C@@H](O)[C@H]1O (stereo partly shown) [galactose] | 52 | 71
OC[C@H]1OC(O)[C@H](O)[C@@H](O)[C@@H]1O (stereo partly shown) [glucose] | 63 | 20
